Data as given in patent US20250034216A1, “STEREOSELECTIVE COVALENT LIGANDS FOR ONCOGENIC AND IMMUNOLOGICAL PROTEINS” (The Scripps Research Institute, priority 2021, published 2025).

Columns and labels:
PSME1 101 = biological target: T1, PSME1 101 (Homo sapiens, UniProt Q06323); experiment: IA-DTB cysteine engagement, GluC + trypsin digest; type: binding; conditions: 22Rv1 cells
T1 construct: stereoselectively engaged C22 of endogenous PSME1 in 22Rv1 cells; endogenous in cells; host or cells: 22Rv1
Procedure: (§1) Sample preparation: Cells (adherent: 15 cm dishes, suspension: 2 million cells/mL) were treated with electrophilic probes in situ for indicated times and concentrations, washed with ice-cold PBS, and flash frozen in liquid nitrogen. Cell pellets were lysed by sonication (8 pulses, 40% power) in 500 μL ice-cold PBS supplemented with cOmplete protease inhibitors (1 tablet/10 mL of PBS). Whole cell lysates protein content was measured using a standard DC protein assay (Bio-Rad) and 500 μL (2 mg/mL protein content) were treated with 5 μL of 10 mM 1A-DTB (in DMSO) for 1 h at ambient temperature with occasional vortexing. Samples were methanol-chloroform precipitated with the addition of 500 μL ice-cold MeOH and 200 μL CHCl3, vortexed, and centrifuged (10 min, 10,000 g). Without disrupting the protein disk, both top and bottom layers were aspirated and the protein disk was washed with 1 mL ice-cold MeOH and centrifuged (10 min, 10,000 g). The pellets were allowed to air dry, and then re-suspended in 90 μL buffer (9 M urea, 10 mM DTT, 50 mM TEAB pH 8.5). Samples were reduced by heating at 65 C for 20 minutes and water bath sonicated as needed to resuspend the protein pellets, followed by alkylation via addition of 10 μL (500 mM) iodoacetamide and incubated at 37 C for 30 min with shaking. Samples were briefly centrifuged, and probe sonicated once more to ensure complete resuspension, and then diluted with 300 μL buffer (50 mM TEAB pH 8.5) to reach final concentration of 2 M urea. […] Digested samples were then diluted with 300 μL wash buffer (50 mM TEAB pH 8.5, 150 mM NaCl, 0.2% NP-40) containing streptavidin-agarose beads (50 μL of 50% slurry in wash buffer) and were rotated at room temperature for 2 hours. Enriched samples were pelleted by centrifugation (2000 g, 2 min) and transferred to BioSpin columns and washed (3×1 mL wash buffer, 3×1 mL PBS, 3×1 mL water). Enriched peptides were eluted by 300 μL 50% acetonitrile with 0.1% formic acid and eluate was evaporated to dryness via speedvac. IA-DTB labeled and enriched peptides were resuspended in 100 μL EPPS buffer (200 mM, pH 8.0) with 30% acetonitrile, vortexed, and water bath sonicated. Samples were TMT labeled with 3 μL of corresponding TMT tag (5 mg tag resuspended in 256 μL acetonitrile), vortexed, and incubated at room temperature for 1 hour. TMT labeling was quenched with the addition of hydroxylamine (5 μL 5% solution in H2O) and incubated for 15 minutes at room temperature. Samples were then acidified with 5 μL formic acid, combined and dried using a SpeedVac. Samples were desalted via Sep-Pak and then high pH fractionated.
(§2) Data processing: Cysteine engagement ratios (probe vs DMSO) were calculated for each peptide-spectra match by dividing each TMT reporter ion intensity by the average intensity for the channels corresponding to DMSO treatment. Peptide-spectra matches were then grouped based on protein ID and residue number (e.g., PSME1 C22), […] ion intensities for the DMSO channels <10,000, coefficient of variation for DMSO channels >0.5, […] TMT reporter ion intensities were normalized to the median summed signal intensity across channels.
(§3) Samples were analyzed by liquid chromatography tandem mass-spectrometry using an Orbitrap Fusion mass spectrometer (Thermo Scientific) coupled to an UltiMate 3000 Series Rapid Separation LC system and autosampler (Thermo Scientific Dionex). The peptides were eluted onto a capillary column (75 μm inner diameter fused silica, packed with C18 (Waters, Acquity BEH C18, 1.7 μm, 25 cm)) or an EASY-Spray HPLC column (Thermo ES902, ES903) using an Acclaim PepMap 100 (Thermo 164535) loading column, and separated at a flow rate of 0.25 μL/min. Data was acquired using an MS3-based TMT method on Orbitrap Fusion or Orbitrap Eclipse Tribrid Mass Spectrometers. […]

PSME1 106 = biological target: T2, PSME1 106 (Homo sapiens, UniProt Q06323); experiment: IA-DTB cysteine engagement, GluC + trypsin digest; type: binding; conditions: 22Rv1 cells
T2 construct: stereoselectively engaged C22 of endogenous PSME1 in 22Rv1 cells; endogenous in cells; host or cells: 22Rv1
Procedure: as §1, §2, §3

SF3B1 1035 = biological target: T3, SF3B1 1035 (Homo sapiens, UniProt O75533+Q7RTV0); experiment: IA-DTB cysteine engagement, GluC + trypsin digest; type: binding; conditions: 22Rv1 cells
T3 construct: Cysteine engagement data from 22Rv1 cells treated; endogenous in cells; host or cells: 22Rv1
Procedure: as §1, §2, §3

SF3B1 1123 = biological target: T4, SF3B1 1123 (Homo sapiens, UniProt O75533+Q7RTV0); experiment: IA-DTB cysteine engagement, GluC + trypsin digest; type: binding; conditions: 22Rv1 cells
T4 construct: Cysteine engagement data from 22Rv1 cells treated; endogenous in cells; host or cells: 22Rv1
Procedure: as §1, §2, §3

SF3B1 1244 = biological target: T5, SF3B1 1244 (Homo sapiens, UniProt O75533+Q7RTV0); experiment: IA-DTB cysteine engagement, GluC + trypsin digest; type: binding; conditions: 22Rv1 cells
T5 construct: Cysteine engagement data from 22Rv1 cells treated; endogenous in cells; host or cells: 22Rv1
Procedure: as §1, §2, §3

SF3B1 795 = biological target: T6, SF3B1 795 (Homo sapiens, UniProt O75533); experiment: IA-DTB cysteine engagement, GluC + trypsin digest; type: binding; conditions: 22Rv1 cells
T6 construct: endogenous in cells; host or cells: 22Rv1
Procedure: as §1, §2, §3

SF3B1 796 = biological target: T7, SF3B1 796 (Homo sapiens, UniProt O75533); experiment: IA-DTB cysteine engagement, GluC + trypsin digest; type: binding; conditions: 22Rv1 cells
T7 construct: endogenous in cells; host or cells: 22Rv1
Procedure: as §1, §2, §3

SF3B1 933 = biological target: T8, SF3B1 933 (Homo sapiens, UniProt O75533+Q7RTV0); experiment: IA-DTB cysteine engagement, GluC + trypsin digest; type: binding; conditions: 22Rv1 cells
T8 construct: Cysteine engagement data from 22Rv1 cells treated; endogenous in cells; host or cells: 22Rv1
Procedure: as §1, §2, §3

SF3B1 965 = biological target: T9, SF3B1 965 (Homo sapiens, UniProt O75533+Q7RTV0); experiment: IA-DTB cysteine engagement, GluC + trypsin digest; type: binding; conditions: 22Rv1 cells
T9 construct: Cysteine engagement data from 22Rv1 cells treated; endogenous in cells; host or cells: 22Rv1
Procedure: as §1, §2, §3

22Rv1 cells = experiment: Proliferation assay (CellTiter Glo); type: cell-based, human; conditions: 72 h
Procedure: Cells were seeded at 5000 cells per well (50 μL medium) in 96-well flat bottom white wall plates. After 24 h, 50 μL of medium containing DMSO or compound dilutions (2× final concentration from 1000× stocks) were added to the wells. At the time of compound addition, a reference plate to determine the cell population density at time 0 (TO) was assayed using CellTiter Glo reagent (50 μL added to each well). After 72 h in culture, the remaining plates were assayed using CellTiter Glo. After 30 min of shaking at room temperature, luminescence was analyzed using a CLARIOstar (BMG Labtech) plate reader. Raw values were normalized using GraphPad PRISM software version 9.0.0. Lines of best fit were generated using a four-parameter variable slope least squares regression.

T9 sequence (O75533 whole entry): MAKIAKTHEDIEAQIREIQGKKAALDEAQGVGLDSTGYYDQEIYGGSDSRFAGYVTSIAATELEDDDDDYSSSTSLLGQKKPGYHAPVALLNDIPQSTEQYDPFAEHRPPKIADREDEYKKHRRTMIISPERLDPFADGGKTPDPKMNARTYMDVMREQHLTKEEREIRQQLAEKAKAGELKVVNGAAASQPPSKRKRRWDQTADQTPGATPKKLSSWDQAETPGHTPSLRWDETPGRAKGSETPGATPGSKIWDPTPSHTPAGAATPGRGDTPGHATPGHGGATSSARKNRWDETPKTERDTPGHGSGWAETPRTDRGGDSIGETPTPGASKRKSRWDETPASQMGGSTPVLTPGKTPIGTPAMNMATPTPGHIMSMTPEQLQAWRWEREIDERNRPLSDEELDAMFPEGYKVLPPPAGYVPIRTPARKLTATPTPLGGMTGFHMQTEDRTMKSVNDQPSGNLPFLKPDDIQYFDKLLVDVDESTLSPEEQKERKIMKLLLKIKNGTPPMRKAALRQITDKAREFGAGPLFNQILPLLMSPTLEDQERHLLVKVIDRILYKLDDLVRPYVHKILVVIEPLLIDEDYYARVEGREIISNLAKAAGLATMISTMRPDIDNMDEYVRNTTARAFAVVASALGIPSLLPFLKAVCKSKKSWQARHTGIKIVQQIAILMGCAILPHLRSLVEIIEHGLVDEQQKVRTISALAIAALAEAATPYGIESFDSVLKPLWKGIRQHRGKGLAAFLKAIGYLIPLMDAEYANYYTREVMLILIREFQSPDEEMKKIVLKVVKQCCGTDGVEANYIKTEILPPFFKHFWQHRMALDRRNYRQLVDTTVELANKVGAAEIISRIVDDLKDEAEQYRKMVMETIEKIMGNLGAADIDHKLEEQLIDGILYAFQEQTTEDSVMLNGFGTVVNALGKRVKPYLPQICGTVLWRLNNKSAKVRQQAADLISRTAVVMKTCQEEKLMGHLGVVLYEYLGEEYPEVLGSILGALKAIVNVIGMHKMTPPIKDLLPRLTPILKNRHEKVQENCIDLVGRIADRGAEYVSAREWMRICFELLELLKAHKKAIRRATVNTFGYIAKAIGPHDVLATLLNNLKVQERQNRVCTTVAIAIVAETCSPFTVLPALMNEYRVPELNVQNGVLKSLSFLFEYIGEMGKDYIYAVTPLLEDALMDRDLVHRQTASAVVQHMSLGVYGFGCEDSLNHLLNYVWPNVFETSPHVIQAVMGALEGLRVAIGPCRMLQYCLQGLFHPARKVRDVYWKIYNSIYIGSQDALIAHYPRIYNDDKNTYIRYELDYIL
T9 sequence (Q7RTV0 whole entry): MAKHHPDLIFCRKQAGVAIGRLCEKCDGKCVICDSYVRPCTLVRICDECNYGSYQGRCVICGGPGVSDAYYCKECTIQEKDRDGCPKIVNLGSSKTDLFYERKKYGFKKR
T9 sequence (Q15393 whole entry partner): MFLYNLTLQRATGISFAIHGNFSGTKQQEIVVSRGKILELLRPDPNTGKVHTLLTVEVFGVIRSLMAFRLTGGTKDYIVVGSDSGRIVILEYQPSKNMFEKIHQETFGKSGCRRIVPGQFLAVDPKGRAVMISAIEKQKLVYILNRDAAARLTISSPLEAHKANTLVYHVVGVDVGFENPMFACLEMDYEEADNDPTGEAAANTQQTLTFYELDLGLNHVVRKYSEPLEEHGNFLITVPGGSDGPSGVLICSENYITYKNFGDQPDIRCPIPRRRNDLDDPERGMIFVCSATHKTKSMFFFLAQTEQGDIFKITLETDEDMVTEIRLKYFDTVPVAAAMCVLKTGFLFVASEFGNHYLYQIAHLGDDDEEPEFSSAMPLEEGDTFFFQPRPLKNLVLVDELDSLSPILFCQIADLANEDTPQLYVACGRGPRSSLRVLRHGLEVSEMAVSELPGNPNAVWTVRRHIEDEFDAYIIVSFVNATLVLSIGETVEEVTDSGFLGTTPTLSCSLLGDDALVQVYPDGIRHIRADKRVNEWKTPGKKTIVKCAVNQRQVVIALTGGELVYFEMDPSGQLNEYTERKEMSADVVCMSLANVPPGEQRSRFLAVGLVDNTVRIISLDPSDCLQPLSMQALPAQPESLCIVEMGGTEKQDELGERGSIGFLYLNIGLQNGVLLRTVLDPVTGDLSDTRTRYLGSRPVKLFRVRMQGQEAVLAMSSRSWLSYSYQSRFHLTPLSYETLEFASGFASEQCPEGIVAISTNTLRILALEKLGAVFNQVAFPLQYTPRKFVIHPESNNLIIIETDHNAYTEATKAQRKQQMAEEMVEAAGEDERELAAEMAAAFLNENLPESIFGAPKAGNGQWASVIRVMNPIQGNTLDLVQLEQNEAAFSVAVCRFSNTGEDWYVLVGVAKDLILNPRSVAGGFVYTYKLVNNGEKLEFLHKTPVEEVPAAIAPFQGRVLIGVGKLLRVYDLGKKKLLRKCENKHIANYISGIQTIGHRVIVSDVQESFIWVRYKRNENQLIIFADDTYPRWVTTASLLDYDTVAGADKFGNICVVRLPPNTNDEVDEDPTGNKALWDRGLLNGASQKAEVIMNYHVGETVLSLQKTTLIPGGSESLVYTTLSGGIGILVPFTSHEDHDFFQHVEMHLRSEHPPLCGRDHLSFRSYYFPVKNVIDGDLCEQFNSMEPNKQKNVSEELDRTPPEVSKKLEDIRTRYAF
T9 sequence (Q9BWJ5 whole entry partner): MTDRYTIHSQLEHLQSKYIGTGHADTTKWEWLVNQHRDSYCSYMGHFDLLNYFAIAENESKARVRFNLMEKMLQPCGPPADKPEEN
T6 sequence (O75533 whole entry): as the sequence (O75533 whole entry) above
T7 sequence (O75533 whole entry): as above
T4 sequence (O75533 whole entry): as above
T4 sequence (Q7RTV0 whole entry): as the sequence (Q7RTV0 whole entry) above
T4 sequence (Q15393 whole entry partner): as the sequence (Q15393 whole entry partner) above
T4 sequence (Q9BWJ5 whole entry partner): as the sequence (Q9BWJ5 whole entry partner) above
T3 sequence (O75533 whole entry): as the sequence (O75533 whole entry) above
T3 sequence (Q7RTV0 whole entry): as the sequence (Q7RTV0 whole entry) above
T3 sequence (Q15393 whole entry partner): as the sequence (Q15393 whole entry partner) above
T3 sequence (Q9BWJ5 whole entry partner): as the sequence (Q9BWJ5 whole entry partner) above
T8 sequence (O75533 whole entry): as the sequence (O75533 whole entry) above
T8 sequence (Q7RTV0 whole entry): as the sequence (Q7RTV0 whole entry) above
T8 sequence (Q15393 whole entry partner): as the sequence (Q15393 whole entry partner) above
T8 sequence (Q9BWJ5 whole entry partner): as the sequence (Q9BWJ5 whole entry partner) above
T5 sequence (O75533 whole entry): as the sequence (O75533 whole entry) above
T5 sequence (Q7RTV0 whole entry): as the sequence (Q7RTV0 whole entry) above
T5 sequence (Q15393 whole entry partner): as the sequence (Q15393 whole entry partner) above
T5 sequence (Q9BWJ5 whole entry partner): as the sequence (Q9BWJ5 whole entry partner) above
T1 sequence (Q06323 whole entry): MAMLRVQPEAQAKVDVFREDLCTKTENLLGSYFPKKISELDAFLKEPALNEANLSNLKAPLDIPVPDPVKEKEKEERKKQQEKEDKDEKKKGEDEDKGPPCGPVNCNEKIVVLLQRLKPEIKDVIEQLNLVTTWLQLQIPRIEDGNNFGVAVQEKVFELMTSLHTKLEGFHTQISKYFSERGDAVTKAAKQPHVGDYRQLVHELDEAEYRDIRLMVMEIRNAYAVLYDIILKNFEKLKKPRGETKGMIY
T2 sequence (Q06323 whole entry): as above

SMILES | percent engagement relative to DMSO, PSME1 101 (PSME1 101; 5 uM) [%] | percent engagement relative to DMSO, PSME1 101 (PSME1 101; 20 uM) [%] | percent engagement relative to DMSO, PSME1 106 (PSME1 106; 5 uM) [%] | percent engagement relative to DMSO, PSME1 106 (PSME1 106; 20 uM) [%] | percent engagement relative to DMSO, SF3B1 1035 (SF3B1 1035; 5 uM) [%] | percent engagement relative to DMSO, SF3B1 1035 (SF3B1 1035; 20 uM) [%] | percent engagement relative to DMSO, SF3B1 1123 (SF3B1 1123; 5 uM) [%] | percent engagement relative to DMSO, SF3B1 1123 (SF3B1 1123; 20 uM) [%] | percent engagement relative to DMSO, SF3B1 1244 (SF3B1 1244; 5 uM) [%] | percent engagement relative to DMSO, SF3B1 1244 (SF3B1 1244; 20 uM) [%] | percent engagement relative to DMSO, SF3B1 795 (SF3B1 795; 5 uM) [%] | percent engagement relative to DMSO, SF3B1 795 (SF3B1 795; 20 uM) [%] | percent engagement relative to DMSO, SF3B1 796 (SF3B1 796; 5 uM) [%] | percent engagement relative to DMSO, SF3B1 796 (SF3B1 796; 20 uM) [%] | percent engagement relative to DMSO, SF3B1 933 (SF3B1 933; 5 uM) [%] | percent engagement relative to DMSO, SF3B1 933 (SF3B1 933; 20 uM) [%] | percent engagement relative to DMSO, SF3B1 965 (SF3B1 965; 5 uM) [%] | percent engagement relative to DMSO, SF3B1 965 (SF3B1 965; 20 uM) [%] | further results
C=CC(=O)N1[C@H](c2ccc3c(c2)OCO3)c2[nH]c3ccccc3c2C[C@H]1C(=O)N1CCOCC1 [WX-02-23, 1-((1R,3S)-1-(benzo[d][1,3]dioxol-S-yl)-3-(morpholine-4-carbonyl)-1,3,4,9-tetrahydro-2H-pyrido [3,4-b]indol-2-yl)prop-2-en-1-one] | −4.575 | −14.73 | −4.44 | −17.66 | −9.265 | −6.03 | 5.965 | 21.005 | −11.92 | −12.54 | −4.58 | −5.905 | −6.42 | −5.075 | −7.02 | −4.95 | −15.75 | −8.665 | fold greater antiproliferative activity than MY-7A (22Rv1 cells): ~4 fold; IC50 (22Rv1 cells; read-out: antiproliferative activity IC50): 170 nM
C=CC(=O)N1[C@@H](c2ccc3c(c2)OCO3)c2[nH]c3ccccc3c2C[C@@H]1C(=O)N1CCOCC1 [WX-02-43, 1-((1S,3R)-1-(benzo[d][1,3]dioxol-5-yl)-3-(morpholine-4-carbonyl)-1,3,4,9-tetrahydro-2H-pyrido [3,4-b]indol-2-yl)prop-2-en-1-one] | −9.325 | −5.635 | −7.69 | −20.355 | 1.53 | 8.13 | 1.425 | 21.84 | −1.065 | −1.615 | 5.715 | 3.145 | 6.755 | 7.34 | 6.345 | 2.595 | 1.985 | 13.895 | anti-proliferative effect (22Rv1 cells): inactive enantiomer
